{"source": "patent US5811083A", "about": "“Tocopherol derivatives for use in cosmetic compositions” (Estee Lauder, Inc., priority 1996, dated 1998)", "key": {"[1]": {"tested_on": "UV-induced lipid peroxidation", "experiment": "in vitro liposomal/UV assay, inhibition of UV-induced lipid peroxidation", "assay_type": "biochemical", "method": "The antioxidant potential and stability of equimolar concentrations of tocopherol-cysteamine, cysteamine, and a α-tocopherol were compared using an in vitro liposomal/UV assay. This assay provides an effective means of measuring an antioxidant's potential to inhibit UV-induced lipid peroxidation which may correlate with the antioxidant's inhibition of free radical generation in the skin. […] The antioxidant contribution of cysteamine to the derivative was tested by measuring cysteamine alone and determined to be 20.1%."}, "[2]": {"tested_on": "UV-induced lipid peroxidation", "experiment": "UV/liposomal assay of anti-oxidant activity after storage for five years at ambient temperatures", "assay_type": "biochemical", "details": "for Inhibition: average of two separate assays performed in duplicate; for retention of antioxidant activity on storage: dry powder form, ambient temperatures, five years", "method": "The tocopherol sample used in this assay was freshly prepared and stored under argon gas in a sealed amber ampoule at -20° C. […] In contrast, the tocopherol-cysteamine samples used in the assay were stored in dry powder form at ambient temperatures for more than five years. […] In particular, several materials, including two batches of tocopherol-cysteamine, were tested for anti-oxidant activity using a UV/liposomal assay. The results reported below represent the average of two separate assays performed in duplicate."}, "[3]": {"tested_on": "lipid peroxidation, human skin", "experiment": "clinical study, lipid peroxides in ethanol washes of ventral forearms after topical cream", "assay_type": "in vivo", "details": "for average level of peroxides, 500 mJ/cm^2 + Ao: UVB 500 mJ/cm^2; for average level of peroxides, 0 + Ao: not irradiated", "method": "A clinical study was undertaken in order to measure the effectiveness of topically applied compositions containing tocopherol-cysteamine on human skin. Protection against lipid peroxidation was used as a biological marker in a study of twenty subjects.\nA cream containing 0.10% tocopherol-cysteamine and other antioxidants was prepared using the batch formulation of Table III.\nThe cream containing 0.10% tocopherol-cysteamine was applied by the panelists to their left ventral forearms twice daily. The same cream formulation without any antioxidants was used as the control and applied to the right ventral forearms. At 0, 4, 8 and 12 weeks, ethanol washes were taken and samples aliquoted for endogenous levels of lipid peroxides, susceptibility to lipid peroxidation by UVB irradiation at 500 mJ/cm^2, and lipid analysis."}, "[4]": {"details": "ambient temperatures, over a period of one week; cited from earlier work"}, "[5]": {"details": "cited from earlier work"}, "[6]": {"details": "week 0, cream 0.10% tocopherol-cysteamine and other antioxidants"}, "[7]": {"details": "week 4, cream 0.10%, twice daily"}, "[8]": {"details": "week 8, cream 0.10%, twice daily"}, "[9]": {"details": "week 12, cream 0.10%, twice daily"}}, "note": "“Also recorded” adds a separate entry of the source.", "data": [{"smiles": "NCCS", "note": "[Cysteamine, cysteamine, reference compound]", "values": [{"measurement": "% Inhibition (UV-induced lipid peroxidation)", "setting": "[1]; 0.18 mM", "result": 20.1, "unit": "%"}]}, {"smiles": "Cc1c(C)c2c(c(C)c1O)CCC(C)(C(=O)NCCS)O2", "note": "(stereo not drawn) [Tocopherol-cysteamine]", "values": [{"measurement": "% Inhibition (UV-induced lipid peroxidation)", "setting": "[1]; 0.18 mM", "result": 67.3, "unit": "%"}, {"measurement": "antioxidant activity vs α-tocopherol and cysteamine assays combined", "setting": "[1]; equimolar, 0.18 mM", "result": "greater than that activity observed in both the α-tocopherol and cysteamine assays combined"}, {"measurement": "average inhibition of UV-induced lipid peroxidation, previous experiments", "setting": "[1]; triplicate samplings assayed in duplicate", "result": "65.2% (+/-3.61)"}, {"measurement": "activity of 5 year-old vs new batch", "setting": "[2]; 0.010%, 5 year-old vs new batch", "result": "very similar"}, {"measurement": "Inhibition", "setting": "[2]; 5 year-old, 0.010%", "result": 57.3, "unit": "%"}, {"measurement": "retention of antioxidant activity on storage", "setting": "[2]", "result": "did not lose significant antioxidant activity over this five year period"}, {"measurement": "retention of antioxidant activity on storage", "setting": "[2]; listed as tocopheryl-cysteamine", "result": "does not lose any significant anti-oxidant activity"}, {"measurement": "Inhibition", "setting": "[2]; new batch, 0.010%", "result": 65.6, "unit": "%"}, {"measurement": "stability compared with α-tocopherol", "setting": "[2]; storage at ambient temperatures", "result": "considerably more stable"}, {"measurement": "amount of endogenous peroxides, week 8 vs week 0", "setting": "[3]; 8 weeks vs 0 time point, p value less than 0.1", "result": "significant decrease"}, {"measurement": "amount of peroxides generated by UVB, week 8 vs week 0", "setting": "[3]; 8 weeks vs 0 time point, p<0.01, t test", "result": "significant decrease"}, {"measurement": "average values vs untreated samples, 12 weeks", "setting": "[3]; 12 week time point, control and irradiated preparations", "result": "lower than the untreated samples"}, {"measurement": "peroxide levels after irradiation over the course of treatment", "setting": "[3]; irradiated, treated arms", "result": "decreased over the course of treatment"}, {"measurement": "average endogenous peroxide levels over time", "setting": "[3]; treated but not irradiated", "result": "decreased over time"}, {"measurement": "average level of peroxides, 500 mJ/cm^2 + Ao", "setting": "[3]; [6]", "result": 17.69}, {"measurement": "average level of peroxides, 0 + Ao", "setting": "[3]; [6]", "result": 9.10}, {"measurement": "average level of peroxides, 500 mJ/cm^2 + Ao", "setting": "[3]; [7]", "result": 12.95}, {"measurement": "average level of peroxides, 0 + Ao", "setting": "[3]; [7]", "result": 8.19}, {"measurement": "average level of peroxides, 500 mJ/cm^2 + Ao", "setting": "[3]; [8]", "result": 10.33}, {"measurement": "average level of peroxides, 0 + Ao", "setting": "[3]; [8]", "result": 6.56}, {"measurement": "average level of peroxides, 500 mJ/cm^2 + Ao", "setting": "[3]; [9]", "result": 26.67}, {"measurement": "average level of peroxides, 0 + Ao", "setting": "[3]; [9]", "result": 21.19}]}, {"smiles": "Cc1c(C)c2c(c(C)c1O)CCC(C)(CCCC(C)CCCC(C)CCCC(C)C)O2", "note": "(stereo not drawn) [Tocopherol, α-Tocopherol]", "values": [{"measurement": "% Inhibition (UV-induced lipid peroxidation)", "setting": "[1]; 0.18 mM", "result": 28.9, "unit": "%"}, {"measurement": "loss of antioxidant potency on storage", "setting": "[4]", "result": "lose its antioxidant potency, and in fact become a pro-oxidant; also recorded: gradually lose antioxidant potency and become a prooxidant"}]}, {"smiles": "Cc1c(C)c2c(c(C)c1O)CCC(C)(C(=O)O)O2", "note": "(stereo not drawn) [Trolox-C, 6-hydroxy-2,5,7,8-tetra-methylchroman-2-carboxylic acid]", "values": [{"measurement": "antioxidant activity vs α-tocopherol and other commercial food antioxidants (butylated hydroxytoluene, butylated hydroxyanisole)", "setting": "[5]; Schaal thin layer oven and AOM tests", "result": "greater antioxidant activity than α-tocopherol and other commercial food antioxidants"}, {"measurement": "antioxidant effectiveness in vegetable oils and animal fats", "setting": "[5]; vegetable oils and animal fats", "result": "extremely effective antioxidant"}]}]}
